Source: patent publication US20240336627A1, “NOVEL COMPOUNDS FOR THE DIAGNOSIS OF TDP-43 PROTEINOPATHIES” (AC IMMUNE SA, priority 2021, published 2024)
Marks after values point to notes of the source that are not given here.

Molecular target: T1, Human brain derived TDP-43 aggregates (Homo sapiens, UniProt Q13148)
T1 construct: A sample of brain tissue (frontal or temporal cortex) was homogenized; from tissue; host or cells: sarkosyl-insoluble fraction of human FTD brain (frontal or temporal cortex)
T1 sequence (Q13148 whole entry): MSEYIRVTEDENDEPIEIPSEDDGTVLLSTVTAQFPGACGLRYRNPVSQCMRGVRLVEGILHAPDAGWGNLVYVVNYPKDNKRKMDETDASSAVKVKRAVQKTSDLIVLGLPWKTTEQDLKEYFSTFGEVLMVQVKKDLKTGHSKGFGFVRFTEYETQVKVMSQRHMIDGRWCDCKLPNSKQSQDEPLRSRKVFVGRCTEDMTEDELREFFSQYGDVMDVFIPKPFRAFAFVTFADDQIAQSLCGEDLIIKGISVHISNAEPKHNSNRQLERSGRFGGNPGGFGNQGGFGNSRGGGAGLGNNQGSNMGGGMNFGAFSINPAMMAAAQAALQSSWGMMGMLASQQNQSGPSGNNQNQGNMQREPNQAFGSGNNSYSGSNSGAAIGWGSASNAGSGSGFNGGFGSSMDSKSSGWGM
Assay: Micro-radiobinding competition assay on human FTD sarkosyl-insoluble brain extracts
Format: binding
Conditions: for Human brain derived TDP-43 aggregates Mean % competition at 250 nM: 250 nM test compound; for Human brain derived TDP-43 aggregates Mean % competition at 2 μM: 2 μM test compound; for Ki: 0.24 nM to 2 μM test compound
Procedure: Human brain extracts were prepared as described in Laferriere et al., 2019, Nature Neurosc. A sample of brain tissue (frontal or temporal cortex) was homogenized at 1:4 (w/v) ratio in the homogenization-solubilization (HS) buffer at 4° C. using tissue homogenizer (Precellys) with CKmix homogenization tubes. The following sequence was used for homogenization: 3 cycles of 30 seconds at 5000 rpm (with 15 seconds pause between each cycle). Homogenized samples were aliquoted and stored at −80° C. in 1.5 mL low protein binding tubes.
Brain homogenates were thawed on ice and resuspended in HS buffer to obtain a final concentration of 2% sarkosyl, 1 unit/μL Benzonase and 1 mM MgCl2. The samples were then incubated at 37° C. under constant shaking at 600 rpm on a thermomixer for 45 minutes (min). The supernatants were collected in a new tube (sarkosyl-soluble fraction, S1). The pellet was resuspended in 1000 μL of myelin floatation buffer and centrifuged at 20,000 g for 60 min at 4° C. The supernatant was carefully removed to remove all the floating lipids. This step was repeated if all the lipids could not be removed in a single step. The pellet was subsequently washed with Phosphate-Buffered Saline (PBS) and centrifuged for 30 min at 20,000 g at 4° C. The final pellet was resuspended in 200 μL PBS and stored at −80° C. (sarkosyl-insoluble fraction). The samples were analyzed by immunoblotting in denaturing conditions.
Human FTD sarkosyl-insoluble brain extracts were spotted onto microarray slides. The slides were incubated with [^3H]-Compound 52 or [^3H]-Compound 16 ligands at 75 nM or 40 nM, respectively, and the example compounds (non-radiolabelled) at 2 μM and 250 nM. In some cases, the non-radiolabelled example compounds were further assessed for a range of different concentrations, varying from 0.24 nM to 2 μM for determination of the inhibition constant (Ki). After incubation, slides were washed and scanned by a real-time autoradiography system (BeaQuant, ai4R). Quantification of the signal was performed by using the Beamage image analysis software (ai4R). Non-specific signal was determined with an excess of non-radiolabelled compound 52 or compound 16 (2 μM) and specific binding was calculated by subtracting the non-specific signal from the total signal. Competition was calculated as percent, where 0% was defined as the specific binding in the presence of vehicle and 100% as the values obtained in the presence of excess of the non-radiolabelled compound 52 or compound 16. Ki values were calculated in GraphPad Prism7 by applying a nonlinear regression curve fit using a one site, specific binding model. Measurements were performed with at least two technical replicates in the two-concentration competition experiment and with one technical replicate in the experiments including a range of concentrations. For compounds tested in more than one experiment, the mean of the replicates or Ki values in independent experiments is reported.

[1] = radioligand [3H]-Compound 16 (40 nM)
[2] = radioligand [3H]-Compound 52 (75 nM)

Human brain derived TDP-43 aggregates Mean % competition at 250 nM [1] | Human brain derived TDP-43 aggregates Mean % competition at 2 μM [1] | Ki [1] [nM] | Human brain derived TDP-43 aggregates Mean % competition at 250 nM [2] | Human brain derived TDP-43 aggregates Mean % competition at 2 μM [2] | Ki [2] [nM] | Compound
54.6^c % | 77.9^c % | 104 | – | – | – | N#Cc1c(N)cccc1N1CCc2nc(-c3cnc(N4CC[C@@H](F)C4)cn3)sc2C1=O [Example 40]
– | – | – | 35.5ª % | 76.1ª % | 100 | N#Cc1cc(N2CCc3nc(-c4ccc(N5CC[C@H](F)C5)nc4)sc3C2=O)ccc1N [Example 23]
– | – | – | 47.0ª % | 64.3ª % | – | Cn1cc(N2CCc3nc(-c4cnc(N5CCC[C@H](F)C5)nc4)sc3C2=O)cn1 [Example 45]
47.2^c % | 67.7^c % | – | – | – | – | N#Cc1c(N)cccc1N1CCc2nc(-c3cnc(N4CC[C@H](F)C4)cn3)sc2C1=O [Example 41]
– | – | – | 66.6ª % | 83.0ª % | – | Nc1cc(N2CCc3nc(-c4ccc(N5CC[C@@H](F)C5)nc4)sc3C2=O)ccc1F [Example 25]
– | – | – | 52.1ª % | 81.0ª % | 144 | Nc1cc(N2CCc3nc(-c4ccc(N5CCC[C@H](F)C5)nc4)sc3C2=O)ccc1F [Example 33]
– | – | – | 67.6ª % | 79.7ª % | 101 | N#Cc1ccc(N2CCc3nc(-c4ccc(N5CCC[C@H](F)C5)nc4)sc3C2=O)cc1N [Example 31]
– | – | – | 56.5ª % | 79.7ª % | 111 | Cn1cc(N2CCc3nc(-c4ccc(N5CC[C@H](F)C5)cc4)sc3C2=O)cn1 [Example 28]
– | – | – | 61.0ª % | 92.5ª % | 71.7 | Cn1cc(N2CCc3nc(-c4ccc(N5CCC[C@@H](F)C5)nc4)sc3C2=O)cn1 [Example 2, (R)-2-(6-(3-fluoropiperidin-1-yl)pyridin-3-yl)-5-(1-methyl-1H-pyrazol-4-yl)-6,7-dihydrothiazolo[5,4-c]pyridin-4(5H)-one]
– | – | – | 46.3ª % | 74.0ª % | 114 | Nc1cccc(N2CCc3nc(-c4cnc(N5CC[C@@H](F)C5)cn4)sc3C2=O)c1F [Example 38]
– | – | – | 55.9ª % | 75.7ª % | 86.6 | N#Cc1ccc(N2CCc3nc(-c4ccc(N5CCC[C@@H](F)C5)nc4)sc3C2=O)cc1N [Example 30]
– | – | – | 54.3ª % | 74.9ª % | 79.9 | Nc1cc(N2CCc3nc(-c4cnc(N5CC[C@H](F)C5)cn4)sc3C2=O)ccc1F [Example 37]
– | – | – | 72.8ª % | 67.9ª % | – | Nc1cc(N2CCc3nc(-c4ccc(N5CCCC5)cn4)sc3C2=O)ccc1F [Example 34]
– | – | – | 66.7ª % | 88.3ª % | 161 | N#Cc1cc(N2CCc3nc(-c4ccc(N5CC[C@@H](F)C5)nc4)sc3C2=O)ccc1N [Example 20]
– | – | – | 22.7ª % | 40.1ª % | – | N#Cc1c(N)cccc1N1CCc2nc(-c3ccc(N4CC[C@H](F)C4)nc3)sc2C1=O [Example 21, (S)-2-amino-6-(2-(6-(3-fluoropyrrolidin-1-yl)pyridin-3-yl)-4-oxo-6,7-dihydrothiazolo[5,4-c]pyridin-5(4H)-yl)benzonitrile]
– | – | – | 45.0ª % | 69.4ª % | – | Nc1ccc(N2CCc3nc(-c4cnc(N5CCCC5)nc4)sc3C2=O)cc1F [Example 43]
– | – | – | – | – | 18.7 | Cn1cc(N2CCc3nc(-c4ccc(N5CC[C@@H](F)C5)nc4)sc3C2=O)cn1 [Example 1, (R)-2-(6-(3-fluoropyrrolidin-1-yl)pyridin-3-yl)-5-(1-methyl-1H-pyrazol-4-yl)-6,7-dihydrothiazolo[5,4-c]pyridin-4(5H)-one]

Human brain derived TDP-43 aggregates Mean % competition at 250 nM [1] | Human brain derived TDP-43 aggregates Mean % competition at 2 μM [1] | Ki [1] [nM] | Human brain derived TDP-43 aggregates Mean % competition at 250 nM [2] | Human brain derived TDP-43 aggregates Mean % competition at 2 μM [2] | Ki [2] [nM] | Compound
– | – | – | 76.9ª % | 92.1ª % | 54.2 | N#Cc1ccc(N2CCc3nc(-c4ccc(N5CC[C@@H](F)C5)nc4)sc3C2=O)cc1N [Example 19]
– | – | – | 50.2ª % | 81.7ª % | 152 | Nc1cccc(N2CCc3nc(-c4cnc(N5CC[C@H](F)C5)nc4)sc3C2=O)c1F [Example 47]
– | – | – | 64.6ª % | 96.4ª % | 139 | Nc1ccc(N2CCc3nc(-c4ccc(N5CCCC5)nc4)sc3C2=O)cc1F [Example 15]
– | – | – | 44.0ª % | 85.7ª % | 58.8 | Nc1cccc(N2CCc3nc(-c4ccc(N5CCCC5)nc4)sc3C2=O)c1F [Example 14]
– | – | – | 42.6ª % | 73.9ª % | 27.7 | N#Cc1cc(N2CCc3nc(-c4ccc(N5CCC[C@@H](F)C5)nc4)sc3C2=O)ccc1N [Example 29]
– | – | – | 64.2ª % | 80.3ª % | – | N#Cc1ccc(N2CCc3nc(-c4ccc(N5CC[C@H](F)C5)nc4)sc3C2=O)cc1N [Example 22]
– | – | – | 43.8ª % | 79.6ª % | – | Nc1cc(N2CCc3nc(-c4cnc(N5CCCC5)nc4)sc3C2=O)ccc1F [Example 42]
– | – | – | 46.0ª % | 83.2ª % | 81 | N#Cc1c(N)cccc1N1CCc2nc(-c3ccc(N4CCCC4)nc3)sc2C1=O [Example 16, 2-amino-6-(4-oxo-2-(6-(pyrrolidin-1-yl)pyridin-3-yl)-6,7-dihydrothiazolo[5,4-c]pyridin-5(4H)-yl)benzonitrile]
52.8^c % | 63.4^c % | – | – | – | – | Nc1cccc(N2CCc3nc(-c4cnc(N5CCC[C@@H](F)C5)nc4)sc3C2=O)c1F [Example 50]
– | – | – | 53.0ª % | 74.6ª % | – | Nc1cc(N2CCc3nc(-c4cnc(N5CC[C@@H](F)C5)cn4)sc3C2=O)ccc1F [Example 35]
64.5^c % | 77.4^c % | 148 | – | – | – | N#Cc1c(N)cccc1N1CCc2nc(-c3cnc(N4CCC(F)CC4)cn3)sc2C1=O [Example 39]
63.1^c % | 65.5^c % | 117 | – | – | – | Nc1cc(N2CCc3nc(-c4cnc(N5CCC(F)CC5)nc4)sc3C2=O)ccc1F [Example 49]
– | – | – | 62.5ª % | 85.9ª % | 93 | Nc1cc(N2CCc3nc(-c4cnc(N5CC[C@@H](F)C5)nc4)sc3C2=O)ccc1F [Example 46]
– | – | – | 46.9ª % | 77.9ª % | 73.6 | Nc1cccc(N2CCc3nc(-c4cnc(N5CCC[C@H](F)C5)nc4)sc3C2=O)c1F [Example 48]
– | – | – | 82.0ª % | 95.0ª % | – | N#Cc1ccc(N2CCc3nc(-c4ccc(N5CCCC5)nc4)sc3C2=O)cc1N [Example 17]
– | – | – | 51.0ª % | – | – | Nc1cc(N2CCc3nc(-c4cnc(N5CCC[C@H](F)C5)cn4)sc3C2=O)ccc1F [Example 36]
